Test: gradient 5% acetonitrile 3 min, to 50% in 2 min, to 85% in 15 min, held 3 min, 100 µL/min
Conditions: column: Zorbax Extend-C18 2.1 x 50 mm; eluents: water / acetonitrile, 0.1% formic acid
In short: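 Pure standards were run in mixtures of ~100 molecules by HPLC coupled to a quadrupole time-of-flight mass spectrometer. The column was a Zorbax Extend-C18 (2.1 × 50 mm, 1.8 μm) at 100 μL/min, with water and acetonitrile each containing 0.1% formic acid, in positive and negative ionization mode. Dead and dwell volumes were 40 μL and 900 μL. Retention time was taken from computationally picked adduct peaks, each manually inspected, with data collected over 3 months.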

SMILES | RP-LC retention time
COc1ccccc1N1CCN(c2cc(SCC(=O)Nc3c(C)cc(C)cc3C)ncn2)CC1 | 1040 s
CCc1cccc(C)c1NC(=O)Cn1c(=O)c(CCC(=O)NC2CCCC2)nc2ccccc21 | 844 s
Cc1ccc(C)c(NC(=O)c2cn3c(n2)CCCC3)c1 | 603 s
Cc1ccc2ncn(C3CCN(S(=O)(=O)c4ccc(F)cc4)CC3)c(=O)c2c1 | 896 s
CCn1cc(-c2nc(CC(=O)Nc3ccccc3C)cs2)c2cccnc21 | 980 s
Cn1c(=O)c2nc(SCCC(=O)NCc3cc(F)cc(F)c3)n(C)c2n(C)c1=O | 733 s
COc1ccc(C)cc1Nc1c(C(=O)N2CCCC2)cnc2nc(C)ccc12 | 601 s
Cc1ccc(CNC(=O)N2CCC(N3CCN(Cc4cccc(F)c4)C(=O)C3=O)CC2)cc1 | 757 s
CCCCC(=O)Nc1nc(-c2ccc3c(c2)N(C)C(=O)C(C)O3)cs1 (configuration not stated) | 953 s
Cc1ccc(Cl)cc1N1CCN(c2ccc3cc(S(=O)(=O)N4CCCCC4C)ccc3n2)CC1 (configuration not stated) | 1420 s
Cc1ccc2nc(NC(=O)C3CCN(S(=O)(=O)c4cn(C(C)C)cn4)CC3)sc2c1 | 849 s
O=C(Nc1ccc(CC(=O)N2CCOCC2)cc1)NC(c1ccccc1)c1ccccc1 | 740 s
CN(C)c1ncnc2c1ncn2-c1ccccc1 | 714 s
COc1cccc(-c2cn3c(C(=O)Nc4ncccc4C)csc3n2)c1 | 732 s
COc1ccc(OC)c(CNC(=O)Cn2ccc3ccc(-c4nnc(C)o4)cc32)c1 | 770 s
O=C(NC1CCCCC1)N1CCCC(c2nnnn2-c2ccccc2)C1 (configuration not stated) | 818 s
O=C(NC1CCCCC1)C1CCCN(c2ccc3cc(S(=O)(=O)N4CCCCC4)ccc3n2)C1 (configuration not stated) | 832 s
Cc1ccc(CCNC(=O)C2CCCN(c3ncnc4c3nc3n4CCCCC3)C2)cc1 (configuration not stated) | 897 s
O=C(NCC(=O)N1CCCc2ccccc21)c1cccc(Br)c1 | 822 s
CCC(=O)N1CCc2cc(N3CC(C(=O)NCC4CC4)CC3=O)ccc21 (configuration not stated) | 652 s
Cc1ccc(C)c2sc(N(C)CC(=O)O)nc12 | 793 s
Cc1oc(C2CCN(C(=O)CCc3cc(Cl)no3)CC2)nc1C(=O)N1CCOCC1 | 684 s

SMILES | RP-LC retention time
COc1ccc(NC(=O)C2=Cc3cc(Br)ccc3OC2)c(OC)c1 | 1120 s
Cc1noc(C2CN(C(=O)Nc3cccc(C)c3C)CC23CCOCC3)n1 (configuration not stated) | 715 s
Cc1ccc(-n2c(=O)n(C)c(=O)c3cc(C(=O)Nc4ccc5c(c4)OCO5)cnc32)cc1 | 907 s
CCOc1ccc(CC(=O)NC2CCN(c3cc(-c4cccs4)[nH]n3)C2)cc1 (configuration not stated) | 733 s
CCCS(=O)(=O)Nc1ccc(F)c(C(=O)c2c[nH]c3ncc(Cl)cc23)c1F | 878 s
Cc1ccc(NC(=O)c2ccco2)c(C(=O)c2ccccc2)c1 | 995 s
CCOC(=O)N1CCN(c2ncc(S(=O)(=O)c3ccc(Cl)cc3)c(N)n2)CC1 | 910 s
COCCO[C@H]1C(=O)N(C2CCN(S(=O)(=O)c3cn(C)cn3)CC2)[C@H]1c1ccncc1 | 556 s
COc1cccc(CNC(=O)C2CCN(CC(=O)Nc3ccc(C)cc3)CC2)c1 | 582 s
CCCNC(=O)Cc1c(C)nn(-c2nc(-c3ccc(Cl)cc3)cs2)c1C | 1110 s
Cc1noc2nc(C)n(CC(=O)Nc3cccc(C(F)(F)F)c3)c(=O)c12 | 879 s
CC(C)c1ccc(Nc2nc3ccncc3n(Cc3ccccc3)c2=O)cc1 | 886 s
COc1nccnc1N1CCC(NC(=O)c2ccsc2)C1 (configuration not stated) | 645 s
O=c1ccc(-c2ccc(Cl)cc2)nn1CCc1nc(-c2ccc3c(c2)OCO3)no1 | 1040 s
COc1ccc(NC(=O)N2c3ccccc3CC2c2nc(C3CC3)no2)c(C)c1 (configuration not stated) | 978 s
O=C(Cc1cccc(Cl)c1)N1[C@H]2CC[C@@H]1c1cnc(-c3ccccc3)nc1C2 | 990 s
Cc1nc(-c2ccc(N3CCN(C(=O)c4cccc(Cl)c4)CC3)nc2)sc1C | 957 s
CCOc1ccc(CC(=O)NC2CCN(c3cc(-c4ccc(F)cc4)[nH]n3)C2)cc1OCC (configuration not stated) | 679 s
O=C(N[C@H]1C[C@@H]2C[C@H]1N(C(=O)Nc1ccc(Cl)cc1F)C2)c1cccs1 | 855 s
Cc1nnc(NC(=O)c2ccc(S(=O)(=O)NCc3ccccn3)o2)s1 | 581 s
Cc1noc(-c2nn(C)c3c2CN(C(=O)c2ccccc2Br)CC3)n1 | 725 s
CCc1nc(-c2csc(S(=O)(=O)N3CCCC(C(=O)Nc4ccccc4F)C3)c2)no1 (configuration not stated) | 1010 s

SMILES | RP-LC retention time
Cc1cccc(-c2nc(C3CCN(C(=O)C(NC(=O)c4ccco4)C(C)C)CC3)no2)c1 (configuration not stated) | 1010 s
O=S(=O)(c1ccc(-c2noc(-c3ccccc3Cl)n2)cc1)N1CCCC1 | 1200 s
O=C(c1c(-c2ccccc2)nnc2ccccc12)N1CCN(c2ccccn2)CC1 | 605 s
CCn1c(=O)oc2cc(-c3noc(-c4ccc(C(F)(F)F)cc4)n3)ccc21 | 1220 s
COc1ccccc1CNC(=O)CN1CCN(Cc2ccccc2)C1=O | 773 s
COc1ccc(C)cc1NC(=O)Cn1c(N2CCOCC2)nc(C)cc1=O | 719 s
CC(C)n1cc(C2=CCN(C(=O)NC3CCCC3)CC2)c2cccnc21 | 878 s
CCCCOc1ccc(-c2nc(C3CC(=O)N(c4ccc(CC)cc4)C3)no2)cc1 (configuration not stated) | 1390 s
COc1ccccc1NC(=O)Cn1ccc2ccc(-c3nnc(C)o3)cc21 | 811 s
COc1ccc(NC(=O)Cn2nc(C(=O)N3CCCC3)c3ccccc32)c(OC)c1 | 822 s
O=C1C2CCCN2C(c2ccncc2)N1c1cccc(Cl)c1 (configuration not stated) | 587 s
Cc1ccnc(N2CCCC(C(=O)N3CCC(Cc4ccccc4)CC3)C2)n1 (configuration not stated) | 987 s
O=C(NCCn1nnc2cc(C(=O)N3CCCC3)ccc21)Nc1ccc(Br)cc1F | 742 s
Cc1ccc(C)c(C(=O)CC2(O)C(=O)N(C)c3ccccc32)c1 (configuration not stated) | 818 s
Cc1c2cnccc2c(C)c2c1c1ccccc1n2CCOC(=O)c1ccccc1 | 751 s
Cc1cc(C)nc(-n2nc(C)c3c2N(C)C(=O)CC3c2ccccc2Cl)n1 (configuration not stated) | 810 s
CCOc1ccc(NC(=O)Nc2nccn(-c3cccc(Cl)c3)c2=O)cc1 | 1000 s
N#Cc1cccc(S(=O)(=O)N2CCc3nc(-c4ccc(Cl)cc4)ncc3C2)c1 | 1130 s
CCC(CC)N1CCN(C(=O)c2nc(N3CCSCC3)c3cn(C)nc3n2)CC1 | 574 s
CCCCC(=O)Nc1cnc(N2CCNCC2)c(C(=O)N2CCCC2)c1 | 595 s
O=C(CN1C(=O)COc2ccc(C(=O)N3CCN(c4ccccn4)CC3)cc21)N1CCCC1 | 572 s
CCOc1ccc(C(=O)N2CCC3(CC2)NC(=O)c2cc(F)ccc2N3CC)cc1 | 836 s

SMILES | RP-LC retention time
COC1CN(c2cccc(F)c2)C12CCN(C(=O)C1(c3ccccc3)CC1)CC2 (configuration not stated) | 1120 s
COc1ccc(-c2nnc(-c3ccc(C)c(S(=O)(=O)Nc4ccc(Cl)cn4)c3)o2)cc1OC | 918 s
COc1ccccc1-c1nnc(-c2ccc(Cl)c(S(=O)(=O)N(C)C)c2)o1 | 913 s
Cn1c(=O)sc2cc(S(=O)(=O)N3CCC(C(=O)Nc4cccc(F)c4)CC3)ccc21 | 885 s
CCn1c(C)c(CCC(=O)NC(C)C)c(=O)n2nc(-c3ccccc3)nc12 | 706 s
CSc1ccc(-c2nc3cnccn3c2Nc2cccc(C(=O)N3CCCCC3)c2)cc1 | 807 s
Cc1cc(C)cc(NC(=O)COc2cc(C)nc(N3CCN(c4ccccc4)CC3)n2)c1 | 915 s
COc1ccc(Nc2nc(N3CCN(c4ccc(F)cc4)CC3)nc3n[nH]nc23)cc1 | 840 s
COc1ccc(NC(=O)C2CCCN(c3nc4c(s3)c(C)nn4-c3ccccc3)C2)cc1Cl (configuration not stated) | 1190 s
CCOC(=O)C(C)Sc1nnc(CNC(=O)c2ccc(OC)cc2)n1C1CCCCC1 (configuration not stated) | 805 s
O=C(c1ccc(Cl)c(Cl)c1)N1CCN(c2nc(-c3ccccc3)cs2)CC1 | 1210 s
CC(C)c1noc(COC2CCCN(C(=O)NCc3ccccc3)C2)n1 (configuration not stated) | 780 s
Cc1cc(S(=O)(=O)N2CCn3c(nnc3C3CCN(C(C)C)C3)C2)ccc1Cl (configuration not stated) | 637 s
O=c1c(-c2ccccc2)c(N2CCN(c3ccccn3)CC2)c1=O | 620 s
CC(C)n1cnc(S(=O)(=O)N2CCC(C(=O)N3CCc4ccccc4C3)CC2)c1 | 765 s
CCNC(=O)c1c2c(nc3ccc(F)cc13)CCC2 | 613 s
COc1ccc(CN(CCC2(C(C)C)CCOC(C)(C)C2)C(C)=O)cc1 (configuration not stated) | 987 s
COC(=O)c1cnc(N2CCN(c3ccc(OC)cc3)CC2)c2ccccc12 | 980 s
COc1ccc(-c2ncc3c(n2)CCN(S(=O)(=O)c2ccc(OC)c(Cl)c2)C3)cc1 | 1080 s
CN(CC(=O)Nc1c2c(nc3c1CCC3)CCCC2)Cc1ccccc1 | 562 s
O=C(c1[nH]nc2c1CCc1ccccc1-2)N1CCC(c2noc(-c3ccncc3)n2)C1 (configuration not stated) | 755 s

— the METLIN SMRT retention time set (Domingo-Almenara et al. 2019)
